Test results: ChEMBL document CHEMBL1201862, “PubChem BioAssay data set” (2004)
Active and inactive are the calls of the source.

Key:
[1] = Trypanosoma cruzi growth suppression in host cells – NIH3T3 host cells, beta-gal luminescence, confirmation (AID 2044); type: functional, cell-based;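 further: intracellular parasites grown in NIH/3T3 mouse fibroblasts as host cells; luminescent beta-galactosidase reporter signal from transgenic T. cruzi replicating inside host cells; inhibitors lower the luminescence signal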
[2] = NIH3T3 cell viability loss – ATP luminescence, mouse fibroblasts, counter-screen, dose response (AID 2010); type: functional, cell-based;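 further: cells exposed to compound for about 90 hours before reading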
[3] = target: T1, Ubiquitin-conjugating enzyme E2 N (Homo sapiens, UniProt P61088); type: functional;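 further: Dose-response confirmation in a TR-FRET assay detecting UBC13-driven polyubiquitin chain formation, inhibition measured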
T1 sequence (P61088 whole entry): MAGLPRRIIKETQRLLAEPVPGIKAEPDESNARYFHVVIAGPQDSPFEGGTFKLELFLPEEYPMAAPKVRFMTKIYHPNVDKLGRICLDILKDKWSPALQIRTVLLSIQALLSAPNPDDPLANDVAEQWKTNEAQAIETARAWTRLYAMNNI

[4] = target: T2, DNA repair protein RAD52 homolog (Homo sapiens, UniProt P43351); type: functional, biochemical
T2 sequence (P43351 whole entry): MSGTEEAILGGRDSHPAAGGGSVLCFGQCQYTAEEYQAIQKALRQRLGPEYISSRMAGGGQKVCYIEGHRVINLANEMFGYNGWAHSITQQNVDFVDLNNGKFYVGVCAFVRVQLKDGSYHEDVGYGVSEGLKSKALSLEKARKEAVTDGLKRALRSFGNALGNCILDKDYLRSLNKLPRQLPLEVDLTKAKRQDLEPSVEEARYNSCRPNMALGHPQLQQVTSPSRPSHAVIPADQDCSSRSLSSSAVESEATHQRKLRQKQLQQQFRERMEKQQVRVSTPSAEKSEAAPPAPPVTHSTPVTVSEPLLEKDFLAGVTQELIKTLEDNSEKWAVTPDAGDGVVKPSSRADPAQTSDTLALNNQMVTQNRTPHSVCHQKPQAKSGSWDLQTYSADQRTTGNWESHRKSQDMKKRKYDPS

[5] = target: T3, Polyadenylate-binding protein 1 (Homo sapiens, UniProt P11940); test: MLLE binding blockers, Cy5 peptide tracer – biochemical, fluorescence polarization, Cy5-PAM2 peptide, secondary, miRNA deadenylation inhibitor project, dose response (AID 602260); type: functional; conditions: read-out: IC50_Mean
[6] = target: T3, Polyadenylate-binding protein 1; test: MLLE domain peptide-binding blockers, IC50 – biochemical, fluorescence polarization, FITC-PAM2 peptide, dose response (AID 602259); type: functional; conditions: read-out: IC50_Mean
[7] = target: T4, High affinity choline transporter 1 (Homo sapiens, UniProt Q9GZV3); test: human choline transporter blockers, potency – cell-based, 5-point CRC, membrane potential dye, dose response (AID 504840); type: functional
T4 sequence (Q9GZV3 whole entry): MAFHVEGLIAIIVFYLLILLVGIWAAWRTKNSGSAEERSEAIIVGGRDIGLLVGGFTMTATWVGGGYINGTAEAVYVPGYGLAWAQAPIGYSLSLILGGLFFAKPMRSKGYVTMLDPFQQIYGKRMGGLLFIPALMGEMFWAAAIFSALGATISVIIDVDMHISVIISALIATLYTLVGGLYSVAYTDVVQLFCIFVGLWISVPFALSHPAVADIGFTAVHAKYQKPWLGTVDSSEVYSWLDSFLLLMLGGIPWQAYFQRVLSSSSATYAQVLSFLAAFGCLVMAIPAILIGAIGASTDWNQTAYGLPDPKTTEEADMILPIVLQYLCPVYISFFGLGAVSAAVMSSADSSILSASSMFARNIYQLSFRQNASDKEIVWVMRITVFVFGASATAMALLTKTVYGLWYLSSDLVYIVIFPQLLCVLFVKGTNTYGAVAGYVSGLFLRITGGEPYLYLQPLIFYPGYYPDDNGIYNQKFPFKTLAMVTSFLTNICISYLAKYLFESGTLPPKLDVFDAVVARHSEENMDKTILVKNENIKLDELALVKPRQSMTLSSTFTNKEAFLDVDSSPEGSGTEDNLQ

[8] = NIH-3T3 fibroblast cytotoxicity, dose response, cytotoxicity control, cell-based, fluorescence, Alamar Blue, secondary assay (AID 2327); type: functional;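 further: NIH-3T3 mouse fibroblasts cultured with fluconazole at 8 µg/mL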
[9] = fluconazole-exposed Candida albicans growth modulators – fluorescence, retest, confirmation (AID 2467); type: functional, cell-based
[10] = test system: Streptococcus sp. 'group A'; test: Streptococcus pyogenes SK(-)GAS viability under kanamycin – luminescence, BacTiterGlo, confirmation, counter-screen for streptokinase expression inhibitor project, dose response (AID 1900); type: functional, organism-based
[11] = test system: Streptococcus; test: GAS UMAA2166 growth inhibition – luminescence, BacTiterGlo, counter-screen for streptokinase expression inhibitor project, dose response (AID 1915); type: functional, organism-based;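 further: potency for reduction of bacterial viability or growth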
[12] = target: T5, Short transient receptor potential channel 4 (Mus musculus, UniProt Q9QUQ5); test: calcium entry via TRPC4 opening agents – cell-based, HEK293 TRPC4/mu-opioid, Fluo-4 calcium, dose response (AID 434937); type: functional
T5 sequence (Q9QUQ5 whole entry): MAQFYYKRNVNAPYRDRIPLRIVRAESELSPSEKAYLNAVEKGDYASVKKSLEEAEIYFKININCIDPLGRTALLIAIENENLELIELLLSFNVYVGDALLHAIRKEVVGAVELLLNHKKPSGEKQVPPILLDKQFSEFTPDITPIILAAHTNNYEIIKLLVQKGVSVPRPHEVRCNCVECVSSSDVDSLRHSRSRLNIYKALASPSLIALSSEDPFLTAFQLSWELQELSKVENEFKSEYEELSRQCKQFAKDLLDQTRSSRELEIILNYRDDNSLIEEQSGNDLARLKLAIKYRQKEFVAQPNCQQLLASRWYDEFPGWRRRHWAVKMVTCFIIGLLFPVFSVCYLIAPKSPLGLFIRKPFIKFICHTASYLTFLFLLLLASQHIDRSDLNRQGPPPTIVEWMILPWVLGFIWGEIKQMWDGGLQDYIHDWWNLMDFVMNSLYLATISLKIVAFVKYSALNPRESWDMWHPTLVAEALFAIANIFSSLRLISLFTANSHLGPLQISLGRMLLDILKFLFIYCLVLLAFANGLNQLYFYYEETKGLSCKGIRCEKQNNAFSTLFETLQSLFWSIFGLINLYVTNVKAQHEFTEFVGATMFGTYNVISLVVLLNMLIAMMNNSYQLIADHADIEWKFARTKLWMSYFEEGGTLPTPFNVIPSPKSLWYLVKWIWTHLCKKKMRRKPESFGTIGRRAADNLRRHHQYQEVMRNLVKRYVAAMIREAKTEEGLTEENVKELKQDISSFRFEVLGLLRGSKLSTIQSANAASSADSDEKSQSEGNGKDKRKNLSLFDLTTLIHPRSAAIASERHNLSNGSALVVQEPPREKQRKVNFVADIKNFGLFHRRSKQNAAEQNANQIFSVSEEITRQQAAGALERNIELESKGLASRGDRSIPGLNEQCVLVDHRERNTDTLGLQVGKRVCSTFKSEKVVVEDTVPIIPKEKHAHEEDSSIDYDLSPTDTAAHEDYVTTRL

[13] = target: T6, Aminopeptidase N (Plasmodium falciparum FcB1/Columbia, UniProt O96935); test: malaria alanyl aminopeptidase activity blockers – biochemical, fluorogenic H-Leu-NHMec substrate, 1536-well (AID 1445); parameters: species or system Plasmodium falciparum 3D7, 3D7
T6 sequence (O96935 whole entry): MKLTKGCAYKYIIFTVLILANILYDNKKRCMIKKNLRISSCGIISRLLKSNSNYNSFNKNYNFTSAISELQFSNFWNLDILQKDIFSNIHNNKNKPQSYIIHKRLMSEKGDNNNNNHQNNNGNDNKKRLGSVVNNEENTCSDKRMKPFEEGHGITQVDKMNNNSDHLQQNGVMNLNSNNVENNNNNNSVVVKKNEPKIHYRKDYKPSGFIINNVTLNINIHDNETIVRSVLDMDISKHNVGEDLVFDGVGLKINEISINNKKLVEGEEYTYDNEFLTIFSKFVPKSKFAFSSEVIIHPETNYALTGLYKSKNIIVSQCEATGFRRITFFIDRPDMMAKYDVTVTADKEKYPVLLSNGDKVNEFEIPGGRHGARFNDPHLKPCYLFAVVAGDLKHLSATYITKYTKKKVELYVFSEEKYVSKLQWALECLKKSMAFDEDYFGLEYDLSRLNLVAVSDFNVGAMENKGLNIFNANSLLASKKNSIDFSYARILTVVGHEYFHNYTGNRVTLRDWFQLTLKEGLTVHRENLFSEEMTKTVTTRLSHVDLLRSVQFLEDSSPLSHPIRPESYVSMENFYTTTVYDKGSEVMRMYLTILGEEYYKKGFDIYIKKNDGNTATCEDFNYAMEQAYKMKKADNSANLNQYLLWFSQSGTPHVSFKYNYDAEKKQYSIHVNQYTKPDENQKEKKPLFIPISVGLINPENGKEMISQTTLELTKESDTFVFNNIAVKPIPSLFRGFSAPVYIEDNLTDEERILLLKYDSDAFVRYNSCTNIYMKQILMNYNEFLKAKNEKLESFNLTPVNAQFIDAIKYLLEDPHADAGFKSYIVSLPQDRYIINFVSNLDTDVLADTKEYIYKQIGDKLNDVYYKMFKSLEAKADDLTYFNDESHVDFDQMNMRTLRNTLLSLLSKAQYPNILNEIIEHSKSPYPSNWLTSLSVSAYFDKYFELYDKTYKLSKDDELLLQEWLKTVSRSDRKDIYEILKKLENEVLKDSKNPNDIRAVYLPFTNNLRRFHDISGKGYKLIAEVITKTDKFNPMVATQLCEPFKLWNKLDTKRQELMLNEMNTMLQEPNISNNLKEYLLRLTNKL

[14] = Fluorescence-based cell-based high throughput dose response assay for inhibitors of the interaction of nucleotide-binding oligomerization domain containing 2 (NOD2) and the receptor-interacting serine-threonine kinase 2 (RIPK2).; type: functional; conditions: Homo sapiens
[15] = target: Paired box protein Pax-8 (Homo sapiens, UniProt Q06710); test: PAX8 transcriptional activity inhibition in RMG-I – RMG-I cells, luciferase, cherry-pick, dose response (AID 687027); type: functional, cell-based;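 further: luciferase reporter driven by Pax8 target thyroperoxidase promoter measured by SteadyGlo luminescence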
[16] = blockers of HIV-1 ZM109 envelope-driven cell-cell fusion – HeLa effector, CEM target cells, luciferase, cherry-pick, dose response (AID 652058); type: functional, cell-based;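 further: luciferase signal from HIV-1 Env mediated cell-cell fusion of effector and target cells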
[17] = HIV-1 AD8 envelope cell-cell fusion blockers – cherry-pick, dose response (AID 652062); type: functional, cell-based;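 further: luciferase signal from cell-cell fusion driven by HIV-1 clade B AD8 Env; potency is for inhibitors of fusion seen as a drop in luminescence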

T3 sequence (P11940 whole entry, the tested form may be a part): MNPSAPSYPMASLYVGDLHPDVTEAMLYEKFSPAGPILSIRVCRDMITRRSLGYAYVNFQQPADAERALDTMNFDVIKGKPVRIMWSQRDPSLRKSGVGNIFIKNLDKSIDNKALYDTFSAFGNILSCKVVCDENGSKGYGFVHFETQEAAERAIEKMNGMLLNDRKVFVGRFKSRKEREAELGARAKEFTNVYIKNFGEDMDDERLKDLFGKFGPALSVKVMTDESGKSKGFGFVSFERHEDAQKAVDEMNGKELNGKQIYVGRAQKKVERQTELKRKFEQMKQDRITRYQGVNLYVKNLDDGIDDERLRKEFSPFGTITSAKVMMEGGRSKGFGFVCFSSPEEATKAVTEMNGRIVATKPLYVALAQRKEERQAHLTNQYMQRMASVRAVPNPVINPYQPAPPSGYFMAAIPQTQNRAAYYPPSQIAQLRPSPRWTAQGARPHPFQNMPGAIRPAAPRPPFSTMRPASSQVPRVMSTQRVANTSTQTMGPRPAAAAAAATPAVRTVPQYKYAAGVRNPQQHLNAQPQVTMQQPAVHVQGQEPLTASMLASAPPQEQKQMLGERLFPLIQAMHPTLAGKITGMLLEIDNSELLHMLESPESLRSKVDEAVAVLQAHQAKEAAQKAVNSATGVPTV
Paired box protein Pax-8, sequence (Q06710 whole entry, the tested form may be a part): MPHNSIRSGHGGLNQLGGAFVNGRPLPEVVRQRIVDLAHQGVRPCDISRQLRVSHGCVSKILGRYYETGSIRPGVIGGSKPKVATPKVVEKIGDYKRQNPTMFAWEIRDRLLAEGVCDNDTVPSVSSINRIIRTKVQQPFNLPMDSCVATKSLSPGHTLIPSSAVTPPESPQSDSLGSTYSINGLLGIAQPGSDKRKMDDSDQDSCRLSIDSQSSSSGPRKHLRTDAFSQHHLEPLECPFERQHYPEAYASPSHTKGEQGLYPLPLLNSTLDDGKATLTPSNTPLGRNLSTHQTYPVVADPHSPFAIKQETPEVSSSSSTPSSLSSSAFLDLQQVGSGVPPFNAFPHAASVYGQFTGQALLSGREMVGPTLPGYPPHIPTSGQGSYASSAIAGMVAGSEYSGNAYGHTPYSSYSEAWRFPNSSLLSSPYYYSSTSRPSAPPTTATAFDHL

SMILES: COc1cccc(OCC(O)CN2CCN(CCN3C(=O)c4cccc5cccc(c45)C3=O)CC2)c1 (configuration not stated)
- EC50 [1]: 1.59 µM (active)
- EC50 [2]: > 60 µM (inconclusive)
- IC50 [3]: > 20 µM (inactive)
- AC50 [4]: 18.2 µM (active)

SMILES: Cc1ccc(CN(C)C(=O)COC(=O)CSc2ccc([N+](=O)[O-])cc2)cc1
- IC50 [5]: > 66 µM (inactive)
- IC50 [6]: > 66 µM (inactive)

SMILES: O=C(NCCCN1CCOCC1)c1ccc(Cl)c(S(=O)(=O)N2CCCCCC2)c1
- IC50 [7]: 12.3 µM (active)

SMILES: O=C1NC(=O)/C(=C/c2cccc3ccccc23)S1
- EC50 [8]: > 160 µM (inactive)
- EC50 [9]: 0.76 µM (active)
- IC50 [7]: 11 µM (active)

SMILES: Cc1onc(-c2ccccc2)c1C(=O)NC(=S)NNC(=O)c1ccco1
- EC50 [10]: 2.79 µM (active)
- EC50 [11]: 10.6 µM (active)
- EC50 [12]: 10.6 µM (active)
- IC50 [7]: 15.8 µM (active)

SMILES: Cc1nn2c(N3CCN(C)CC3)c3c(nc2c1-c1ccccc1)CCCC3
- IC50 [13]: 61.7 µM (active)
- IC50 [7]: 10.1 µM (active)

SMILES: CCOC(=O)c1c(C)n(-c2ccc(C)cc2)c2ccc(OCC(O)CNCCCO)cc12 (configuration not stated)
- IC50 [3]: > 20 µM (inactive)
- AC50 [4]: 6.8 µM (active)

SMILES: O=C(CSc1ccc2c(c1)OCCO2)NCCc1ccc(Cl)cc1Cl
- IC50 [5]: > 66 µM (inactive)
- IC50 [6]: > 66 µM (inactive)

SMILES: C=CC(=O)N1C/C(=C/c2ccc(Cl)cc2)C(=O)/C(=C\c2ccc(Cl)cc2)C1
- IC50 [14]: 2.58 µM (active)
- AC50 [15]: 1.82 µM (active)

SMILES: CC(=O)NCC/N=C(\C)c1sc2ccccc2c1O
- IC50 [5]: > 66 µM (inactive)
- IC50 [6]: > 66 µM (inactive)

SMILES: CC(=O)C1=C(C)NC(=S)NC1c1ccccc1 (configuration not stated)
- AC50 [16]: 27 µM (active)
- AC50 [17]: 45 µM (active)

SMILES: CNC12CCc3cc(OC)c(OC)c(c31)-c1cc3c(cc1C2)OCO3 (configuration not stated)
- AC50 [4]: 9.25 µM (active)
